Experimental data taken from article PMC6968633, “Synthesis, antibacterial and anticancer activity, and docking study of aminoguanidines containing an alkynyl moiety” (Journal of Enzyme Inhibition and Medicinal Chemistry, 2019).
Converted amounts (≈) assume the structure as drawn.

How the values were obtained:
tested bacterial strains = experiment: Antibacterial MIC, panel of tested bacterial strains; format: cell-based; conditions: against almost all of the tested strains
Method: (§1) Test bacteria were grown to mid-log phase in Mueller–Hinton broth (MHB) or Tryptone Soya Broth (TSB) and diluted 1000-fold in the same medium. Bacteria (10^5 CFU/mL) were inoculated into MHB or TSB and dispensed at 0.2 ml/well into a 96-well microtiter plate. As positive controls, gatifloxacin, moxifloxacin, norfloxacin, oxacillin, and penicillin were used. […] Bacterial growth was determined by measuring the absorption at 630 nm using a microplate reader. All experiments were carried out three times.
(§2) The evaluation of antibacterial activity of all compounds (3a–3j and 6a–6k) was performed by a serial dilution method to determine the MIC against a panel of pathogens comprising five Gram-positive strains (S. aureus (CMCC(B) 26003 and CMCC 25923), Streptococcus mutans BNCC 336931, Enterococcus faecalis CMCC 29212, and Bacillus subtilis CMCC 63501), four Gram-negative strains (E. coli (CMCC 25922 and CMCC 44568) and P. aeruginosa (CMCC 27853 and CMCC 10104)), as well as three methicillin-resistant clinical isolates (S. aureus ATCC 43300 and ATCC 33591, P. aeruginosa ATCC BAA-2111). The results are described in Tables 1 and 2. Gatifloxacin, moxifloxacin, norfloxacin, oxacillin, and penicillin were used as positive controls.

[1] = system: Staphyiococcus aureus CMCC 25923; experiment: Antibacterial MIC, serial dilution; format: cell-based, Staphylococcus aureus; conditions: Staphylococcus aureus, CMCC25923; S. aureus CMCC 25923, 24 h, 37 °C; read-out: MIC
Method: as §1, §2

[2] = system: Streptococcus mutans BNCC 336931; experiment: Antibacterial MIC, serial dilution; format: cell-based; conditions: Streptococcus mutans, BNCC336931; S. mutans BNCC 336931, 24 h, 37 °C; read-out: MIC
Method: as §1, §2

[3] = system: Pseudomonas aeruginosa CMCC 27853; experiment: Antibacterial MIC, serial dilution; format: cell-based; conditions: Pseudomonas aeruginosa, CMCC27853; P. aeruginosa CMCC 27853, 24 h, 37 °C; read-out: MIC
Method: as §1, §2

[4] = system: Escherichia coli CMCC 44568; experiment: Antibacterial MIC, serial dilution; format: cell-based; conditions: Escherichia coli, CMCC44568; E. coli CMCC 44568, 24 h, 37 °C; read-out: MIC
Method: as §1, §2

[5] = system: Escherichia coli CMCC 25922; experiment: Antibacterial MIC, serial dilution; format: cell-based; conditions: Escherichia coli, CMCC25922; E. coli CMCC 25922, 24 h, 37 °C; read-out: MIC
Method: as §1, §2

[6] = system: Staphylococcus aureus CMCC(B)26003; experiment: Antibacterial MIC, serial dilution; format: cell-based; conditions: Staphylococcus aureus; S. aureus CMCC(B)26003, 24 h, 37 °C; read-out: MIC
Method: as §1, §2

[7] = system: Pseudomonas aeruginosa CMCC 10104; experiment: Antibacterial MIC, serial dilution; format: cell-based; conditions: Pseudomonas aeruginosa, CMCC10104; P. aeruginosa CMCC 10104, 24 h, 37 °C; read-out: MIC
Method: as §1, §2

[8] = system: Enterococcus faecalis CMCC 29212; experiment: Antibacterial MIC, serial dilution; format: cell-based; conditions: Enterococcus faecalis, CMCC29212; E. faecalis CMCC 29212, 24 h, 37 °C; read-out: MIC
Method: as §1, §2

[9] = system: Bacillus subtilis CMCC 63501; experiment: Antibacterial MIC, serial dilution; format: cell-based; conditions: Bacillus subtilis, CMCC63501; B. subtilis CMCC 63501, 24 h, 37 °C; read-out: MIC
Method: as §1, §2

L02 = experiment: Cytotoxicity, CCK-8 assay, normal cell line; format: cell-based; conditions: L02 normal human hepatocytes, 48 h
Method: (§3) A lung cancer cell line (A549), gastric cancer cell line (SGC7901) and human hepatocytes (L02) were used to test the anticancer activity and cytotoxicity of the new compounds. 5-Fluorouracil (5-FU) was used as the positive control against cancer cell lines. The A549, SGC7901 and L02 cells were grown in Dulbecco’s modified Eagle’s medium (DMEM) supplemented with 10% foetal bovine serum (FBS) and antibiotics (100 U/mL penicillin-streptomycin). Cells at 80–90% confluence were split by trypsin (0.25% in PBS; pH 7.4), and the medium was changed at 24 h intervals. The cells were cultured at 37 °C in a 5% CO2 incubator. The cells were passaged three times, then approximately 1 × 10^4 cells were seeded into each well of a 96-well plate and allowed to incubate to allow attachment of the cells to the surface. After 24 h, the medium was replaced with DMEM supplemented with 10% FBS containing various concentrations (0.1, 0.3, 1, 3, 10, and 30 μg/mL) of test compounds. Each concentration was tested in triplicate. After 48 h treatment, 20 µL of CCK-8 solution was added to each well and the optical density measured at 450 nm after 3 h using a microplate reader. The IC50 values were defined as the concentrations inhibiting 50% of cell growth.

A549 = experiment: Cytotoxicity, CCK-8 assay; format: cell-based; conditions: Homo sapiens, A549 lung cancer cells, 48 h
Method: as §3

SGC7901 = experiment: Cytotoxicity, CCK-8 assay; format: cell-based; conditions: Homo sapiens, SGC-7901, SGC7901 gastric cancer cells, 48 h
Method: as §3

[10] = system: Staphylococcus aureus ATCC 43300; experiment: Antibacterial MIC, multidrug-resistant clinical isolate; format: cell-based; conditions: Staphylococcus aureus, ATCC43300; multidrug-resistant S. aureus ATCC 43300; read-out: MIC
Method: as §1, §2

[11] = system: Staphylococcus aureus ATCC 33591; experiment: as above; format: cell-based; conditions: Staphylococcus aureus, ATCC33591; multidrug-resistant S. aureus ATCC 33591; read-out: MIC
Method: as §1, §2

[12] = system: Pseudomonas aeruginosa ATCC BAA-2111; experiment: as above; format: cell-based; conditions: ATCCBAA2111, multidrug-resistant P. aeruginosa ATCC BAA-2111
Method: as §1, §2

Structure (SMILES)	MIC (tested bacterial strains) [µg/mL]	melting point [°C]	MIC [1] [µg/mL]	MIC [2] [µg/mL]	MIC [3] [µg/mL]	MIC [4] [µg/mL]	MIC [5] [µg/mL]	MIC [6] [µg/mL]	MIC [7] [µg/mL]	MIC [8] [µg/mL]	MIC [9] [µg/mL]	IC50 (L02) [µg/mL]	IC50 (A549) [µg/mL]	IC50 (SGC7901) [µg/mL]	MIC [10] [µg/mL]	MIC [11] [µg/mL]	MIC [12] [µg/mL]
N=C(N)NN=Cc1ccc(C#CC#Cc2ccc(F)cc2)cc1 [Compound 6d, 2-(4-((4-Fluorophenyl)buta-1,3-diyn-1-yl)benzylidene)hydrazine-1-carboximidamide]	≥ 128	206 to 210	4 (≈ 13.1 µM)	> 128	> 128	> 128	> 128	64 (≈ 210 µM)	> 128	128 (≈ 421 µM)	> 128	–	–	–	–	–	–
N=C(N)NN=Cc1ccc(C#CC#Cc2ccccc2Cl)cc1 [Compound 6e, 2-(4-((2-Chlorophenyl)buta-1,3-diyn-1-yl)benzylidene)hydrazine-1-carboximidamide]	–	207 to 210	128 (≈ 399 µM)	1 (≈ 3.12 µM)	> 128	64 (≈ 200 µM)	8 (≈ 24.9 µM)	0.25 (≈ 0.779 µM)	4 (≈ 12.5 µM)	0.5 (≈ 1.56 µM)	4 (≈ 12.5 µM)	14.8 (≈ 46.1 µM)	3.62 (≈ 11.3 µM)	1.48 (≈ 4.61 µM)	8 (≈ 24.9 µM)	0.5 (≈ 1.56 µM)	–
N=C(N)NN=Cc1ccc(C#CC#Cc2ccc(Cl)cc2)cc1 [Compound 6g, 2-(4-((4-Chlorophenyl)buta-1,3-diyn-1-yl)benzylidene)hydrazine-1-carboximidamide]	≥ 128	202 to 205	> 128	> 128	> 128	128 (≈ 399 µM)	128 (≈ 399 µM)	> 128	> 128	128 (≈ 399 µM)	> 128	–	–	–	–	–	–
N=C(N)NN=Cc1ccc(C#CC#Cc2cccc(Br)c2)cc1 [Compound 6i, 2-(4-((3-Bromophenyl)buta-1,3-diyn-1-yl)benzylidene)hydrazine-1-carboximidamide]	≥ 128	196 to 198	128 (≈ 350 µM)	0.5 (≈ 1.37 µM)	> 128	128 (≈ 350 µM)	64 (≈ 175 µM)	2 (≈ 5.48 µM)	128 (≈ 350 µM)	0.5 (≈ 1.37 µM)	2 (≈ 5.48 µM)	–	–	–	–	–	–
Cc1cccc(C#CC#Cc2ccc(C=NNC(=N)N)cc2)c1 [Compound 6k, 2-(4-(m-Tolylbuta-1,3-diyn-1-yl)benzylidene)hydrazine-1-carboximidamide]	–	202 to 204	32 (≈ 107 µM)	0.5 (≈ 1.66 µM)	> 128	128 (≈ 426 µM)	4 (≈ 13.3 µM)	1 (≈ 3.33 µM)	4 (≈ 13.3 µM)	0.5 (≈ 1.66 µM)	2 (≈ 6.66 µM)	14.8 (≈ 49.2 µM)	3.58 (≈ 11.9 µM)	0.55 (≈ 1.83 µM)	–	–	–
COc1c(N2CCNC(C)C2)c(F)cc2c(=O)c(C(=O)O)cn(C3CC3)c12 (stereo not shown) [Gatifloxacin, reference compound]	–	–	0.125 (≈ 0.333 µM)	1 (≈ 2.66 µM)	2 (≈ 5.33 µM)	0.125 (≈ 0.333 µM)	0.125 (≈ 0.333 µM)	0.125 (≈ 0.333 µM)	2 (≈ 5.33 µM)	1 (≈ 2.66 µM)	2 (≈ 5.33 µM)	–	–	–	0.5 (≈ 1.33 µM)	0.25 (≈ 0.666 µM)	1 (≈ 2.66 µM)
